Experimental data: patent publication US11957687B2 (REGENERON PHARMACEUTICALS, INC., priority 2019, dated 2024)

Each compound was assayed against HSD17B13 (Homo sapiens (Human), UniProt Q7Z5P4) (assay: HSD17B13 enzymatic inhibition assay (150 nM or 50 nM HSD17B13)). Conditions: 50 nM HSD17B13; read-out: Inhibition of 50 nM of HSD17B13 IC50.
Type: biochemical

Sequence of HSD17B13 (Q7Z5P4 other isoform, or with tags, fused parts or gaps): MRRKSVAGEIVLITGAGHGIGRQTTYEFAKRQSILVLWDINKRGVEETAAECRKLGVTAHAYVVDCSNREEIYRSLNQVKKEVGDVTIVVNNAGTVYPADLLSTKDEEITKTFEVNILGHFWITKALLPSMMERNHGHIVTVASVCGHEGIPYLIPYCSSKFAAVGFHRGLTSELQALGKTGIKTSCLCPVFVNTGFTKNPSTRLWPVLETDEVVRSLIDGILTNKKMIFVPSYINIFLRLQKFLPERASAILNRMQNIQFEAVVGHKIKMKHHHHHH

SMILES | IC50
O=C(NC1c2ccc(Cl)cc2Oc2cc(Cl)ccc21)c1cnc(COc2ccc(C(F)(F)F)cc2)[nH]c1=O [Compound 517, N-(3,6-dichloro-9H-xanthen-9-yl)-6-oxo-2-((4-(trifluoromethyl)phenoxy)methyl)-1,6-dihydropyrimidine-5-carboxamide] | 570 nM
Cc1ccc2c(c1)NCCC2NC(=O)c1ccc(C(F)(F)F)[nH]c1=O (stereo not drawn) [Compound 518, N-(7-methyl-1,2,3,4-tetrahydroquinolin-4-yl)-2-oxo-6-(trifluoromethyl)-1,2-dihydropyridine-3-carboxamide] | 560 nM
Nc1ccc(CSc2ncc(C(=O)NC3c4ccc(Cl)cc4Oc4cc(Cl)ccc43)c(=O)[nH]2)cc1C(F)(F)F [Compound 522, 2-((4-amino-3-(trifluoromethyl)benzyl)thio)-N-(3,6-dichloro-9H-xanthen-9-yl)-6-oxo-1,6-dihydropyrimidine-5-carboxamide] | 610 nM
Cc1ccc2c(c1)Oc1cccc(C)c1C2NC(=O)c1cc(CCN(C)C)c(C(F)(F)F)[nH]c1=O (stereo not drawn) [Compound 523, N-(1,6-dimethyl-9H-xanthen-9-yl)-5-(2-(dimethylamino)ethyl)-2-oxo-6-(trifluoromethyl)-1,2-dihydropyridine-3-carboxamide] | > 10000 nM
CNCCc1cc(C(=O)NC2c3ccc(C)cc3Oc3cccc(C)c32)c(=O)[nH]c1C(F)(F)F (stereo not drawn) [Compound 524, N-(1,6-dimethyl-9H-xanthen-9-yl)-5-(2-(methylamino)ethyl)-2-oxo-6-(trifluoromethyl)-1,2-dihydropyridine-3-carboxamide] | 9330 nM
CNCc1cc(C(=O)NC2c3ccc(C)cc3Oc3cccc(C)c32)c(=O)[nH]c1C(F)(F)F (stereo not drawn) [Compound 525, N-(1,6-dimethyl-9H-xanthen-9-yl)-5-((methylamino)methyl)-2-oxo-6-(trifluoromethyl)-1,2-dihydropyridine-3-carboxamide] | 6510 nM
Cc1ccc2c(c1)Oc1cccc(C)c1C2NC(=O)c1cc(CN(C)C)c(C(F)(F)F)[nH]c1=O (stereo not drawn) [Compound 526, N-(1,6-dimethyl-9H-xanthen-9-yl)-5-((dimethylamino)methyl)-2-oxo-6-(trifluoromethyl)-1,2-dihydropyridine-3-carboxamide] | 3780 nM
N#Cc1cccc2c1C(NC(=O)c1ccc(C(F)(F)F)[nH]c1=O)c1ccccc1O2 (stereo not drawn) [Compound 527, N-(1-cyano-9H-xanthen-9-yl)-2-oxo-6-(trifluoromethyl)-1,2-dihydropyridine-3-carboxamide] | 990 nM
O=C(NC1c2ccc(Cl)cc2Oc2cccc(Cl)c21)c1cnc(SCc2ccccc2C(F)(F)F)[nH]c1=O (stereo not drawn) [Compound 529, N-(1,6-dichloro-9H-xanthen-9-yl)-6-oxo-2-((2-(trifluoromethyl)benzyl)thio)-1,6-dihydropyrimidine-5-carboxamide] | > 10000 nM
CCc1cccc2c1CCCC2NC(=O)c1ccc(C(F)(F)F)[nH]c1=O (stereo not drawn) [Compound 530, N-(5-ethyl-1,2,3,4-tetrahydronaphthalen-1-yl)-2-oxo-6-(trifluoromethyl)-1,2-dihydropyridine-3-carboxamide] | > 10000 nM
CCCc1cccc2c1CCCC2NC(=O)c1ccc(C(F)(F)F)[nH]c1=O (stereo not drawn) [Compound 531, 2-oxo-N-(5-propyl-1,2,3,4-tetrahydronaphthalen-1-yl)-6-(trifluoromethyl)-1,2-dihydropyridine-3-carboxamide] | > 10000 nM
C=CCc1cccc2c1CCCC2NC(=O)c1ccc(C(F)(F)F)[nH]c1=O (stereo not drawn) [Compound 532, N-(5-allyl-1,2,3,4-tetrahydronaphthalen-1-yl)-2-oxo-6-(trifluoromethyl)-1,2-dihydropyridine-3-carboxamide] | 5200 nM
O=C(NC1c2ccc(Cl)cc2Oc2cc(Cl)ccc21)c1cnc(COc2cccc(C(F)(F)F)c2)[nH]c1=O [Compound 534, N-(3,6-dichloro-9H-xanthen-9-yl)-6-oxo-2-((3-(trifluoromethyl)phenoxy)methyl)-1,6-dihydropyrimidine-5-carboxamide] | 1080 nM
Cc1ccc2c(c1)Sc1cc(C)ccc1C2NC(=O)c1cc(Br)c(C(F)(F)F)[nH]c1=O [Compound 535, 5-bromo-N-(3,6-dimethyl-9H-thioxanthen-9-yl)-2-oxo-6-(trifluoromethyl)-1,2-dihydropyridine-3-carboxamide] | 50 nM
C=Cc1ccc2c(c1)C(NC(=O)c1ccc(C(F)(F)F)[nH]c1=O)c1ccccc1S2 (stereo not drawn) [Compound 536, 2-oxo-6-(trifluoromethyl)-N-(2-vinyl-9H-thioxanthen-9-yl)-1,2-dihydropyridine-3-carboxamide] | 320 nM
CCc1ccc2c(c1)C(NC(=O)c1ccc(C(F)(F)F)[nH]c1=O)c1ccccc1S2 (stereo not drawn) [Compound 537, N-(2-ethyl-9H-thioxanthen-9-yl)-2-oxo-6-(trifluoromethyl)-1,2-dihydropyridine-3-carboxamide] | 150 nM
C=Cc1cc(C(=O)NC2c3ccc(C)cc3Sc3cc(C)ccc32)c(=O)[nH]c1C(F)(F)F [Compound 538, N-(3,6-dimethyl-9H-thioxanthen-9-yl)-2-oxo-6-(trifluoromethyl)-5-vinyl-1,2-dihydropyridine-3-carboxamide] | 40 nM
C=CCc1cccc(C(NC(=O)c2ccc(C(F)(F)F)[nH]c2=O)c2ccccc2)c1 (stereo not drawn) [Compound 539, N-((3-allylphenyl)(phenyl)methyl)-2-oxo-6-(trifluoromethyl)-1,2-dihydropyridine-3-carboxamide] | 740 nM
CSc1cc(C)ccc1C(NC(=O)c1ccc(C(F)(F)F)[nH]c1=O)c1ccccc1 (stereo not drawn) [Compound 540, N-((4-methyl-2-(methylthio)phenyl)(phenyl)methyl)-2-oxo-6-(trifluoromethyl)-1,2-dihydropyridine-3-carboxamide] | 1130 nM
Cc1ccc2c(c1)O[C@@H]1CCCC[C@H]1[C@H]2NC(=O)c1ccc(C(F)(F)F)[nH]c1=O [Compound 541, N-((4aR,9R,9aS)-6-methyl-2,3,4,4a,9,9a-hexahydro-1H-xanthen-9-yl)-2-oxo-6-(trifluoromethyl)-1,2-dihydropyridine-3-carboxamide] | 60 nM
CCCC1=C(NC(=O)c2ccc(C(F)(F)F)[nH]c2=O)c2cc(C)ccc2C1=O [Compound 542, N-(5-methyl-1-oxo-2-propyl-1H-inden-3-yl)-2-oxo-6-(trifluoromethyl)-1,2-dihydropyridine-3-carboxamide] | 4670 nM
CCCC1=C(NC(=O)c2ccc(C(F)(F)F)[nH]c2=O)c2cc(C)ccc2C1O (stereo not drawn) [Compound 544, N-(1-hydroxy-5-methyl-2-propyl-1H-inden-3-yl)-2-oxo-6-(trifluoromethyl)-1,2-dihydropyridine-3-carboxamide] | 1150 nM
Cc1ccc2c(c1)N(C(=O)OC(C)(C)C)CCC2NC(=O)c1ccc(C(F)(F)F)[nH]c1=O (stereo not drawn) [Compound 546, tert-butyl 7-methyl-4-(2-oxo-6-(trifluoromethyl)-1,2-dihydropyridine-3-carboxamido)-3,4-dihydroquinoline-1(2H)-carboxylate] | > 10000 nM
C=Cc1cccc2c1CCCC2NC(=O)c1ccc(C(F)(F)F)[nH]c1=O (stereo not drawn) [Compound 547, 2-oxo-6-(trifluoromethyl)-N-(5-vinyl-1,2,3,4-tetrahydronaphthalen-1-yl)-1,2-dihydropyridine-3-carboxamide] | 6240 nM
